Data on two compounds can be found in patent US20090297579A1, “Control of Cells and Cell Multipotentiality in Three Dimensional Matrices” (Massachusetts Institute of Technology, priority 2006, published 2009).

The test system of assay [1] is MEFs. Description: BrdU pulse proliferation assay with staurosporine. Format: cell-based, mouse. The conditions noted are these: staurosporine 20 nM, 7 days, BrdU pulse at day 6. The protocol:
(§1) Cell Cycle Arrest Assays with Staurosporine. Cultures of MEFs were incubated in FM with Staurosporine (20 nM) during 7 days while controls were incubated in FM. At day 6, a pulse of BrdU was applied overnight. MEFs were fixed at day 7 and stained with a mouse monoclonal antibody IGgl anti-BrdU FITC-conjugated (BD PharMingen, 33284×). To assess the dose-response effect of staurosporine on MEFs, these were incubated with different concentrations of staurosporine (0, 2, 20 nM) during 14 days. Visual inspection of the cell mass contraction along these 14 days was performed.
(§2) (A) MEFs were incubated with and without staurosporine (20 nM) during 7 days. Proliferation was studied by means of a BrdU pulse followed by immunostaining against BrdU. (B) MEFs were incubated, during 14 days, with different concentrations of staurosporine (0, 2, 20 nM) to further analyze the effect of proliferation in the contraction phenomenon.

Assay [2] deals with MEFs. Description: Cell cycle arrest assay with staurosporine: 3D-bilateral structure development / cell mass contraction. Format: cell-based, mouse. The protocol: as §1, §2
Assay [3] concerns Mouse Embryonic Fibroblasts (MEFs). The assay is described as follows: Gel contraction and bilateral/embryoid-like structure development of MEFs in self-assembling peptide scaffold. It is filed as cell-based. The note with it: for Gel contraction: Table 4, 10 days. On the procedure: In other experiments with RAD16-I, MEF cells (<8th passage) were trypsinized from 75 cm2 culture flasks, suspended in sucrose 20% and mixed with the self-assembling peptide RAD16-I (BD, Puramatrix) 0.5% to obtain a final MEF concentration of 2·10^6 cells/ml and 0.25% of RAD16-I. This suspension was seeded into inserts (Millipore) and jellified by addition of FM. After jellification, FM was added on the hydrogel. Incubation was performed at 37° C. with 5% CO2 and medium was changed every 2 days.
The shape presents bilateral symmetry (3D-bilateral) and resembles some aspects of a vertebrate embryo undergoing axis formation. Collagen I cultures presented a different morphology, basically consisting of a small spherical ball produced by equal contraction forces, without any distinctive shape or pattern.
The percentage of self-assembling peptide used for these experiments was half of the amount we described above (0.25% vs. 0.5%). […] Thus, in this example, two different parameters that may affect the development of such embryoid-like structures were studied: self-assembling peptide scaffold stiffness and fetal bovine serum concentration. […] Gel contraction and the presence of embryoid-like structure development were analyzed. nt=condition not tested.

Assay [4] has as its system EB-derived cells (mouse embryonic stem cell line R1 Oct4-GFP). Description: Alkaline phosphatase activity of EB-derived cells in 3D culture. Format: cell-based. The note with it: EB-dc 3D cultures. On the procedure: Fluorescence microscopy was used to monitor GFP expression during EB formation. The EB were harvested and allowed to settle in a tube. The medium was removed and EB were gently treated with trypsin-EDTA 1× (GIBCO). The resultant EB-derived cells were encapsulated into the peptide scaffold (3D cultures) at a final concentration of 2×10^6 cells/mL, as described above, and cultured in control medium (ES medium in the absence of LIF). 2D cultures, in regular culture plates, were also performed as controls. The EB-derived cells were plated into 12-well plate containing control medium (ES medium in the absence of LIF) at a concentration of 760,000 cells/mL (200,000 cells/cm^2). […]
Alkaline phosphatase activity. Alkaline phosphatase enzyme activity (ALP) of 2D and 3D cultures was measured in triplicate cultures before and after the osteogenic differentiation. […] ALP enzyme activity was calculated after measuring the absorbance of the reaction product formed, p-nitrophenol, at 405 nm on a spectrophotometer. […] Total protein levels were determined using a protein detection kit (Bio-Rad) based on the method of Lowry in order to normalize total protein levels. […]

Assay [5] concerns Mouse Embryonic Fibroblasts (MEF). Description: Alkaline phosphatase activity of MEFs in 3D culture. Format: cell-based. The protocol: Osteogenic differentiation of Mouse Embryonic Fibroblasts (MEF). Mouse embryonic fibroblasts (MEFs) were purchased from ATCC(SCRC-1008). They were isolated from mouse embryos derived from C57BL/6 mothers at 14 days of gestation (E14). The MEFs were expanded prior to osteogenic induction in MEF culture medium of DMEM (high glucose) containing 10% FBS (fetal bovine serum, Hyclone), 4 mM L-glutamine (GIBCO), and 1% (v/v) penicillin-streptomycin (GIBCO). The differentiation experiments were carried out using cells between passages 3 and 5. The MEFs were encapsulated into the peptide scaffold (3D cultures) at a final concentration of 2×10^6 cells/mL, as described above (3D cultures). 2D cultures were also performed by culturing MEFs into 12-well regular culture plates. Both the 2D and 3D cultures were maintained in MEF culture medium for 2-4 days (FIG. 1B). Next, the MEF medium was changed by osteogenic medium (same as in mESC osteogenic induction section). Also, […] of 1-alpha,25-(OH)2 vitamin D3 (Sigma) was added to the osteogenic medium as previously described for mouse-derived NIH 3T3 fibroblasts. The cultures were maintained for different time periods (FIG. 1B, STAGE 3) in osteogenic medium at 37° C. in humidified air with 5% CO2. The medium was regularly exchanged with fresh osteogenic medium.
Alkaline phosphatase activity. Alkaline phosphatase enzyme activity (ALP) of 2D and 3D cultures was measured in triplicate cultures before and after the osteogenic differentiation. The cultures were rinsed twice with […] (TBS, 50 mM Tris base, 0.15 M NaCl, pH 7.4) and then the cells were incubated with 5 mM p-nitrophenyl phosphate (p-nitrophenyl phosphate disodium salt tablets, Sigma) solution in glycine buffer (50 mM glycine, 1 mM MgCl2, pH 10.5) for 30 min at 37° C. ALP enzyme activity was calculated after measuring the absorbance of the reaction product formed, p-nitrophenol, at 405 nm on a spectrophotometer. Standards were prepared by consecutively diluting 10 mM p-nitrophenol (Sigma) solution in glycine buffer at concentrations ranging from 0.0001 mM to 0.06 mM. Total protein levels were determined using a protein detection kit (Bio-Rad) based on the method of Lowry in order to normalize total protein levels. The final APL activity was expressed in units/mg of protein (one unit will hydrolyze 1 micromoles of p-nitrophenyl phosphate per minute at pH 10.5).

Entries after “also recorded” stand apart in the source; their conditions may differ.

On to `CN[C@@H]1C[C@H]2O[C@@](C)([C@@H]1OC)n1c3ccccc3c3c4c(c5c6ccccc6n2c5c31)C(=O)NC4` [Staurosporine], for which the “Incorporation of BrdU” value in the assay on MEFs [1] is “no incorporation”. Further, the “Effect on 3D-bilateral structure development at diluted concentrations” value in the assay on MEFs [2] (staurosporine 0, 2, 20 nM, 14 days) is given as “dose-response inhibitory effect”. Further, the “Development of the 3D-bilateral structure” value in the assay with MEFs [2] (staurosporine 20 nM, 7 days, MEFs in RAD16-I) is listed as “clearly abrogated; also recorded: prevented”.

In the case of AcN-RADARADARADARADA-CONH2 [Peptide], the Contraction result was “No contraction” in assay [3] (Table 3, 0.25% RAD, 2% FBS); “Low” in assay [3] (Table 3, 0.25% RAD, 10% FBS); “High contraction;” in assay [3] (Table 3, 0.25% RAD, 15% FBS); “No contraction” in assay [3] (Table 3, 0.5% RAD, 2% FBS); “Very low” in assay [3] (Table 3, 0.5% RAD, 10% FBS); “Low” in assay [3] (Table 3, 0.5% RAD, 15% FBS). Moreover, the Structure formation entry in assay [3] (Table 3, 0.25% RAD, 15% FBS) was “bilateral structures”. Also, the Gel contraction result is “Low” in assay [3] (peptide gel 0.25%, FBS 2%); “High” in assay [3] (peptide gel 0.25%, FBS 15%); “Low” in assay [3] (peptide gel 0.5%, FBS 15%). The ALP activity is 190.2 U/mg in assay [4] (control (no osteogenic induction)); 87 U/mg in assay [4] (osteogenic-induced); 68.1 U/mg in assay [5] (MEF 3D control cultures, after culture); 1.8 U/mg in assay [5] (MEF 3D control cultures, initial); 118.3 U/mg in assay [5] (MEF 3D osteogenic cultures, after osteogenic induction); 1.5 U/mg in assay [5] (MEF 3D osteogenic cultures, initial).
